Common to all, as to format: in vivo
Series [1] deals with CYPDI = Cyperus difformis (small-flower flatsedge). The series can be described thus: Greenhouse in-water herbicidal activity (large pots). The settings on record: Cyperus difformis, 744 h, read-out: Percent (%) Visual Injury Ratings - 31 DAA, CYPDI. The procedure: (§1) Weed seeds or nutlets of the desired test plant species were planted in puddled soil (mud) prepared by mixing shredded topsoil and deionized (DI) water in a 1:1 ratio in a standard cement mixer. […] Osmocote® (17:6:10 N:P:K; 0.5 teaspoon) was added to the bottom of a container. The container is a high-density polyethylene (HDPE) round container (4.163 L (1.1 gallon), 15 cm high×20.55 cm diameter; for treatment purposes, the surface area is calculated as 331 cm^2 with 1 hectare equivalent to 10^8 cm^2). The mud mixture (2,750 mL) was added to the container filling it half full. Stakes were placed horizontally in each container to create separate areas for which to plant each different plant species. Water was added on a regular basis to maintain the paddy flood, and supplemental lighting was provided with overhead metal halide 1000-Watt lamps as necessary.
(§2) Once the plants had reached the proper size (the growth stage of the various species ranged from 2 to 4 leaves), the containers were flooded with city water to a depth of 3 cm submerging the plants 80-100%. The outside of each container was measured and marked at a 3-cm line with a black permanent marker to eliminate water level variability during the trial period. Water was added daily to maintain this water depth. Triclopyr triethylammonium (as Garlon® 3 A, 360 g ae/L); triclopyr butoxyethyl ester (as Garlon® 4, 480 g ae/L); fluroxypyr methylheptyl ester (meptyl or MHE, as Starane® Ultra, 333 g ae/L); fluroxypyr acid (850 grams acid equivalent per kilogram (g ae/kg)); 2,4-dichlorophenoxyacetic acid dimethylammonium (2,4-D DMA, as Weedar® 64 EC, 456 g ae/L); 2,4-dichlorophenoxyacetic acid 2-ethylhexyl ester (2,4-D 2-EHE, as Agri Star®, 456 g ae/L); clopyralid olamine (as Stinger®, 360 g ae/L); and penoxsulam (as Grasp® SC, 240 g ai/L) were used. Each herbicide treatment for each pot was mixed in water (80 mL) and applied directly into the paddy water at rates adjusted to the surface area. The dry formulations were pre-weighed based on the rate of the active ingredient to be applied on a per unit area basis, placed in 30 mL vials, and capped. Granules were spread onto the top of the water in each pot and dispersed throughout the water. Treatments were replicated 3 times.
(§3) The treated plants and control plants were placed in a greenhouse as described above and water was added as needed to maintain a flood depth of 3 cm. […]

Series [2] has as its system MOOVA = Monochoria vaginalis (monochoria). Described as above. The note with it: Pontederia vaginalis, 744 h, read-out: Percent (%) Visual Injury Ratings - 31 DAA, MOOVA. Here is the method: as §1, §2, §3
Series [3] concerns ECHCG = Echinochloa crus-galli (barnyardgrass). Described as above. The note with it: 744 h, read-out: Percent (%) Visual Injury Ratings - 31 DAA, ECHCG. The procedure: as §1, §2, §3
For a further series, the system named is rice. Kind of series: In-water application, crop safety (summary statement).
Series [4] deals with barnyardgrass (Echinochloa crus-galli), small-flower flatsedge (Cyperus difformis), Japanese bulrush (Schoenoplectus juncoides) and monochoria (Monochoria …). The series can be described thus: In-water application, weed efficacy (summary statement). The note with it: application rate of about 35 to about 280 g ae/ha.
The subject of series [5] is ORYSP = Oryza sativa (transplanted paddy rice). Kind of series: Greenhouse in-water application (large pots), crop injury. Here is the method:
as §1, §2, §3

The subject of series [6] is CYDPI = Cyperus difformis (small-flower flatsedge). Kind of series: Greenhouse in-water herbicidal activity (small pots). The note with it: 35 g ae/ha (as headed) in-water. The source says:
(§4) Weed seeds of the desired test plant species were planted in puddled soil (mud) prepared by mixing a non-sterilized mineral soil (approximately 50 percent silt, 26 percent clay, and 24 percent sand, with a pH of about 7.6 and an organic matter content of about 2.9 percent) and water at a 1:1 volumetric ratio. The prepared mud was dispensed in 365 milliliter (mL) aliquots into 16-ounce (oz.) non-perforated plastic pots with a surface area of 86.59 square centimeters (cm^2) leaving a headspace of 3 centimeters (cm) in each pot. Mud was allowed to dry overnight prior to planting or transplanting. Rice seeds were planted in Sun Gro® MetroMix® 360 planting mixture, which typically has a pH of 6.0 to 6.8 and an organic matter content of about 30 percent, in plastic plug trays. Seedlings at the second or third leaf stage of growth were transplanted into 840 mL of mud contained in 32-oz. non-perforated plastic pots with a surface area of 86.59 cm^2 four days prior to herbicide application. The paddy was created by filling the headspace of the pots with 2.5 to 3 cm of water. When required to ensure good germination and healthy plants, a fungicide treatment and/or other chemical or physical treatment was applied. The plants were grown for 4-22 days (d) in a greenhouse with an approximate 14-hour (h) photoperiod which was maintained at about 29° C. during the day and 26° C. during the night. Nutrients were added as Osmocote® (19:6:12, Nitrogen:Phosphorus:Potassium (N:P:K)+minor nutrients) at 2 g per 16 oz. pot and 4 g per 32 oz. pot. Water was added on a regular basis to maintain the paddy flood, and supplemental lighting was provided with overhead metal halide 1000-Watt lamps as necessary. The plants were used for testing when they reached the second or third true leaf stage.
(§5) Triclopyr triethylammonium (as Grandstand® R, 359.5 grams acid equivalent per liter (g ae/L)); fluroxypyr methylheptyl ester (meptyl or MHE, as Starane™, 179.8 g ae/L); 2,4-dichlorophenoxyacetic acid dimethylammonium (2,4-D DMA, as Weedar® 64, 455.4 g ae/L); and penoxsulam (as Grasp® SC, 239.7 grams active ingredient per liter (g ai/L) were used. Measured amounts of formulated compounds were placed in individual 120 mL glass vials and were dissolved in 40 mL of an aqueous mixture containing 1.25% volume per volume (v/v) Agri-Dex® crop oil concentrate. Generally, multiple concentrations were tested utilizing the same stock solution. Applications were made by injecting an appropriate amount of the application solution into the aqueous layer of the paddy. Control plants were treated in the same manner with the solvent blank.
(§6) The treated plants and control plants were placed in a greenhouse as described above and water was added as needed to maintain a paddy flood. After approximately 3 weeks the condition of the test plants, compared with that of the untreated plants, was determined visually and scored on a scale of 0 to 100 percent where 0 corresponds to no injury or growth reduction and 100 corresponds to complete kill.

Series [7] relates to MOOVA = Monochoria vaginalis (monochoria). The description is as above. The note with it: 35 g ae/ha (as headed) in-water.
From the text: as §4, §5, §6

In series [8] the test system is ECHCG = Echinochloa crus-galli (barnyardgrass). The description is as above. The note with it: 35 g ae/ha (as headed) in-water.
From the text: as §4, §5, §6

Series [9] deals with SCPJU = Schoenoplectus juncoides (Japanese bulrush). Described as above. The note with it: 35 g ae/ha (as headed) in-water.
From the text: as §4, §5, §6

[10] abbreviates: 280 g ae/ha in-water, greenhouse large pots, 31 DAA.
The mark [11] stands for this setting: 560 g ae/ha in-water, greenhouse large pots, 31 DAA.
Where [12] appears, read: 1120 g ae/ha in-water, greenhouse large pots, 31 DAA.
The mark [13] stands for this setting: application rates of less than or equal to 280 g ae/ha.
Where [14] appears, read: 35 g ai/ha in-water, greenhouse large pots, 31 DAA.

Like-named read-outs stand apart in the source and are kept apart here.

For the molecule `CCCCC(CC)COC(=O)COc1ccc(Cl)cc1Cl` (stereo not shown) [2,4-D 2-ethylhexyl ester (Agri Star ®)], the pest or weed control at 280 g/ha in [1] (setting [10]) is 100%; in series [2] (setting [10]) it was 100%; in [3] (setting [10]), 35%. In addition, the pest or weed control at 560 g/ha in series [1] (setting [11]) turned out to be 100%; in series [2] (setting [11]), 100%; in [3] (setting [11]) it was 65%. Besides, the values for the pest or weed control at 1120 g/ha in series [1] (setting [12]), in series [2] (setting [12]) and in series [3] (setting [12]) were 100%, 100% and 87%, respectively.
Turning to `O=C(O)COc1ccc(Cl)cc1Cl` [2,4-D, (2,4-dichlorophenoxy)acetic acid], the “crop safety exhibited by rice” value in the series with rice (setting [13]) is recorded as “little to no crop injury”. Moreover, in [4], the “efficacy on several commercially relevant weeds” value (from here on “efficacy”) is recorded as “highly efficacious”.
Regarding `O=C(O)c1nc(Cl)ccc1Cl` [Clopyralid olamine (Stinger ®), 2-hydroxyethanaminium 3,6-dichloro-2-pyridinecarboxylate], the “Percent (%) Visual Injury Ratings - 31 DAA, ORYSP” value in series [5] (280 g ae/ha in-water), in [5] (560 g ae/ha in-water) and in series [5] (1120 g ae/ha in-water) was 0% throughout. The pest or weed control at 280 g/ha in series [1] worked out at 7%; in [2], 10%; in series [3], 17%. For the same molecule, the pest or weed control at 560 g/ha in series [1] was determined as 53%; in series [2], 18%; in series [3] it was 4%. In addition, the pest or weed control at 1120 g/ha was determined as 59% in [1], 23% in [2] and 5% in series [3].
For `Nc1c(Cl)c(F)nc(OCC(=O)O)c1Cl` [Fluroxypyr acid, 2-[(4-amino-3,5-dichloro-6-fluoro-2-pyridinyl)oxy]-acetic acid], the “crop safety exhibited by rice” value in the series on rice (in vivo) is “little to no crop injury”. Further, the “efficacy” value in series [4] is “highly efficacious”. The pest or weed control at 280 g/ha in series [1] (setting [10]) was determined as 100%; in [2] (setting [10]), 98%; in [3] (setting [10]), 27%. For the same molecule, the pest or weed control at 1120 g/ha was determined as 100% in series [1] (setting [12]), 100% in series [2] (setting [12]) and 45% in [3] (setting [12]). Moreover, the pest or weed control at 560 g/ha in series [3] (setting [11]) is 28%.
On to `COc1cnc(OC)n2nc(NS(=O)(=O)c3c(OCC(F)F)cccc3C(F)(F)F)nc12` [Penoxsulam (Grasp ® SC), penoxsulam], for which, in [6], the “Percent (%) Visual Injury Ratings - 20 DAA, CYDPI” value is reported as 100%. In addition, the “Percent (%) Visual Injury Ratings - 20 DAA, MOOVA” value in series [7] was 99%. In addition, in [8], the “Percent (%) Visual Injury Ratings - 20 DAA, ECHCG” value was 99%. For the same molecule, in series [9], the “Percent (%) Visual Injury Ratings - 20 DAA, SCPJU” value came to 100%. Also, the pest or weed control at 35 g/ha in [1] (setting [14]) stood at 99%; in series [2] (setting [14]), 100%; in series [3] (setting [14]) it was 100%.
For `CCCCOCCOC(=O)COc1nc(Cl)c(Cl)cc1Cl` [Triclopyr butoxyethyl ester (Garlon ® 4), 2-butoxyethyl 2[(3,5,6-trichloro-2-pyridinyl)oxy]acetate], the entries for the “Percent (%) Visual Injury Ratings - 31 DAA, ORYSP” value in series [5] (280 g ae/ha in-water), in series [5] (560 g ae/ha in-water) and in series [5] (1120 g ae/ha in-water) were 3%, 22% and 72%, respectively. Further, the pest or weed control at 280 g/ha in series [1] (setting [10]) came to 100%; in series [2] (setting [10]) it was 100%; in series [3] (setting [10]), 60%. Also, the results for the pest or weed control at 560 g/ha in series [1] (setting [11]), in [2] (setting [11]) and in series [3] (setting [11]) were 100%, 100% and 78%, respectively. Besides, the pest or weed control at 1120 g/ha in [1] (setting [12]) is 100%; in series [2] (setting [12]), 100%; in series [3] (setting [12]) it was 95%.
Regarding `O=C(O)c1nc(Cl)ccc1Cl` [clopyralid, 3,6-dichloro-2-pyridinecarboxylic acid], in the series with rice (setting [13]), the “crop safety exhibited by rice” value was “little to no crop injury”. Further, in series [4], the “efficacy” value is reported as “highly efficacious”.
Taken in the same sequence, the figures for `O=C(O)COc1nc(Cl)c(Cl)cc1Cl` [triclopyr, 2-[(3,5,6-trichloro-2-pyridinyl)oxy]acetic acid] were “little to no crop injury” and “highly efficacious”.
